Laboratory results taken from article PMC5517562, “Design and discovery of novel monastrol-1,3,5-triazines as potent anti-breast cancer agent via attenuating Epidermal Growth Factor Receptor tyrosine kinase” (Scientific Reports, 2017).
Read-outs that look alike come from different tables or passages of the source. Values belong to the compound of their own block, whether it stands above or below them.

Key:
[1] = system: HeLa (cervical cancer); assay: MTT in vitro cytotoxicity assay, HeLa; format: cell-based, human
Procedure: (§1) The synthesized compounds were evaluated for in-vitro cytotoxic activity against various cell lines such as HeLa (cervical cancer), MCF-7 (breast cancer), HL-60 (Human promyelocytic leukemia), HepG2 (Hepatocellular carcinoma) and MCF 12A (normal epithelial cell) by the MTT assay method. […] The relationship between surviving fraction and drug concentration was plotted to obtain the survival curve of all the cancer cell lines HeLa, MCF-7, HL-60 and HepG2. The response parameter calculated was the IC50 values, which responds to the concentration required for 50% inhibition of cell viability. The in-vitro cytotoxic activity of the synthesized compounds is summarized Table 3.
(§2) The target compounds were subjected to in vitro cytotoxicity bioassay. In vitro cytotoxicity was determined using a standard MTT assay with protocol appropriate for the individual test system[29]–[31]. The four human cancer cell lines HeLa, MCF-7, HL-60, HepG2 and MCF-12A were cultured in the MEM medium supplemented with 10% FBS, 1% glutamine and […] gentamicin sulfate in a CO2 incubator in a humidified atmosphere of 5% CO2 and 95% air. The test compounds were prepared prior to the experiment by dissolving in 0.1% DMSO and diluted with medium. The cells were then exposed to different concentrations of drugs ([…]) in the volume of […]. Cells in the control wells received the same volume of medium containing 0.1% DMSO. After 24 h, the medium was removed and cell cultures were incubated with […] MTT reagent (1 mg/ml) for 5 h at 37 °C. The known number of cells ([…]) was incubated in a 5% CO2 incubator at 37 °C in the presence of different concentrations of test compounds. After 48 h of drug incubation, the MTT solution was added in each well and absorbance was recorded at 540 nm by an ELISA reader. The experiment was performed in triplicate. Cell survival was calculated as the percentage of MTT inhibition as % growth inhibition = 100 − (mean OD of individual test Group/Mean OD of each Control Group) × 100.

[2] = system: MCF-7 (breast cancer); assay: MTT in vitro cytotoxicity assay, MCF-7; format: cell-based, human
Procedure: as §1, §2

[3] = system: HL-60 (Human promyelocytic leukemia); assay: MTT in vitro cytotoxicity assay, HL-60; format: cell-based
Procedure: as §1, §2

[4] = system: HepG2 (Hepatocellular carcinoma); assay: MTT in vitro cytotoxicity assay, HepG2; format: cell-based, human; details: NA: Not active
Procedure: as §1, §2

[5] = system: MCF 12A (normal epithelial breast cell line); assay: MTT assay on normal cells, MCF 12A; format: cell-based, human; details: normal epithelial breast cell MCF 12A; for IC50: Homo sapiens
Procedure: as §1
The presence of non-halogen substituent along with electron donating substituent seriously jeopardise the anticancer potential. […] To determine the selectivity of these molecules between normal and cancerous cells, the designed compounds were also tested against MCF 12A, a normal epithelial breast cell.
as §2

[6] = molecular target: T1, EGFR-TK (Homo sapiens, UniProt P00533); assay: EGFR tyrosine kinase inhibitory activity (Kinase-Glo Plus luminescence); format: biochemical; details: for inhibition at 10 µM: read-out: Percent of Inhibition, EGFR tyrosine kinase; for %i: EGFR-TK percent inhibition as repeated in docking Table 5; for inhibition at 10 µM / Percent of Inhibition, EGFR tyrosine kinase: at 10 µM
T1 construct: 0.2 mg/mL Poly (Glu, Tyr) substrate, 10 mM ATP and EGFR
T1 sequence (P00533 25-1210): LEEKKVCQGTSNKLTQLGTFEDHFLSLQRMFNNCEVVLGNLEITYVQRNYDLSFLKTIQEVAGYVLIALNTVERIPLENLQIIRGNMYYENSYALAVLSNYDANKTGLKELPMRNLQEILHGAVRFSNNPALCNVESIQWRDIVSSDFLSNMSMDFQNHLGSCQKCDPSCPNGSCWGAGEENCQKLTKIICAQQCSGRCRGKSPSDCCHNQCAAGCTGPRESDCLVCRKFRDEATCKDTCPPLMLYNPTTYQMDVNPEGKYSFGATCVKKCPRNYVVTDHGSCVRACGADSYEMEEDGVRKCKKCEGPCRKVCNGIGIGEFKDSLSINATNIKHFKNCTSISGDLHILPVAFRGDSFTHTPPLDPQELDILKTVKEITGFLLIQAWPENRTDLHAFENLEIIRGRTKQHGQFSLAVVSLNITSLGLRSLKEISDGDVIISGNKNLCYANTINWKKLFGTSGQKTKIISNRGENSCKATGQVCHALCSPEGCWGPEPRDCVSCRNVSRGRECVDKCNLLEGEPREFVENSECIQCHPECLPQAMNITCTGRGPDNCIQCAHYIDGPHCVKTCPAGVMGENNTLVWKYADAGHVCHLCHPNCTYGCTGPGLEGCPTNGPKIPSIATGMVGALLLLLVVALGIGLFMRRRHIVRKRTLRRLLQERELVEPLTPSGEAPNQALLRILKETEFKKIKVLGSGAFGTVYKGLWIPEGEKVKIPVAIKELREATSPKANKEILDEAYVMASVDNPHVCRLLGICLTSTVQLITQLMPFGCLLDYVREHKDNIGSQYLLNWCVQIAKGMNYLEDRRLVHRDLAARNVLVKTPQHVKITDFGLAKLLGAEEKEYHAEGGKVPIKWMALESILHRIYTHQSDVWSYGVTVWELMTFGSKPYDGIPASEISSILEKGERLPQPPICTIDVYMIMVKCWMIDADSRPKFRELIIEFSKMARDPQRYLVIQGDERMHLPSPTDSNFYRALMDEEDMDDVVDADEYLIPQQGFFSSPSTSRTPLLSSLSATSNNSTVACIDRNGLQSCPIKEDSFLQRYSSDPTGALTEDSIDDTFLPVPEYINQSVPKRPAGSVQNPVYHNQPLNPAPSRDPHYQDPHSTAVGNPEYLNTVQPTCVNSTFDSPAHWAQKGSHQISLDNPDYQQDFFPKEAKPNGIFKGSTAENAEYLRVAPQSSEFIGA
Procedure: Kinase activity was determined using Kinase-Glo Plus luminescence kinase assay kit, by quantitating the amount of ATP remaining in the solution of kinase reaction. The luminescent signal is correlated with the residual amount present and it was inversely related with kinase activity. The tested compounds were diluted to 100 mM in 10% DMSO, then […] of the dilution was added to a 50 mL reaction. All of the enzymatic reactions were performed at 30 °C for 40 min, 50 mL of reaction mixture contains 10 mM MgCl2, 40 mM Tris, pH 7.4, 0.1 mg/mL BSA, 0.2 mg/mL Poly (Glu, Tyr) substrate, 10 mM ATP and EGFR. Incubate the plate for 5 min at r.t. then add 50 mL of Kinase-GloPlus Luminescence kinase assay to each reaction. ADP-Glo assay kit is the protein kinase assays used to determine IC50 values in which ADP generation was measured as it leads to an increase in luminescence signal. The reaction mixture was incubated in a 96-well plate at 30 °C for 30 min, after the incubation period add 25 mL of ADP-Glo reagent to terminate the assay. Shake the 96-well plate for 30 min at ambient temperature then incubate it, then add 50 mL of kinase detection reagent. Read the 96-well plate using the ADP-Glo Luminescence reader. All the assay components were added to the blank control except the substrate. By removing the blank control value you can obtain the corrected activity for each protein kinase target.

SMILES: CCOC(=O)C1=C(C)N(c2nc(Nc3cccc(F)c3)nc(Nc3cccc(F)c3)n2)C(=S)NC1c1ccccc1OC (stereo not shown) [7g, Ethyl 1-(4,6-bis((3-fluorophenyl)amino)-1,3,5-triazin-2-yl)-4-(2-methoxyphenyl)-6-methyl-2-thioxo-1,2,3,4-tetrahydropyrimidine-5-carboxylate]
IC50 ([1]; Homo sapiens): 42.1 ± 0.12 µM
IC50 ([2]; Homo sapiens, MCF7): 47.4 ± 0.27 µM
IC50 ([3]; Homo sapiens): 31.5 ± 0.21 µM
IC50 ([4]; Homo sapiens): 36.3 ± 0.47 µM
IC50 [5]: 77.22 ± 0.34 µM
inhibition at 10 µM [6]: 94.3%
melting point: 132 to 135 °C

SMILES: N.N.[Cl][Pt][Cl] [Cisplatin, reference compound]
IC50 [1]: 32.5 ± 0.62 µM
IC50 [2]: 24.4 ± 0.92 µM
IC50 [3]: 12.3 ± 0.76 µM
IC50 [4]: 25.9 ± 0.82 µM
IC50 MCF 12A [5]: non-toxic

SMILES: CCOC(=O)C1=C(C)N(c2nc(Nc3ccc([N+](=O)[O-])cc3)nc(Nc3ccc([N+](=O)[O-])cc3)n2)C(=S)NC1c1ccc(C)cc1 (stereo not shown) [7b, Ethyl 1-(4,6-bis((4-nitrophenyl)amino)-1,3,5-triazin-2-yl)-6-methyl-2-thioxo-4-(p-tolyl)-1,2,3,4-tetrahydropyrimidine-5-carboxylate]
IC50 ([1]; Homo sapiens): 81.8 ± 0.34 µM
IC50 ([2]; Homo sapiens, MCF7): 76.5 ± 0.54 µM
IC50 ([3]; Homo sapiens): 77.3 ± 0.41 µM
IC50 ([4]; Homo sapiens): 79.3 ± 0.75 µM
IC50 MCF 12A [5]: non-toxic
inhibition at 10 µM [6]: 56.7%
melting point: 183 to 185 °C

SMILES: CCOC(=O)C1=C(C)N(c2nc(Nc3ccccc3[N+](=O)[O-])nc(Nc3ccccc3[N+](=O)[O-])n2)C(=S)NC1c1ccc(C)cc1 (stereo not shown) [7c, Ethyl 1-(4,6-bis((2-nitrophenyl)amino)-1,3,5-triazin-2-yl)-6-methyl-2-thioxo-4-(p-tolyl)-1,2,3,4-tetrahydropyrimidine-5-carboxylate]
IC50 ([1]; Homo sapiens): 83.5 ± 0.22 µM
IC50 ([2]; Homo sapiens, MCF7): 72.2 ± 0.61 µM
IC50 ([3]; Homo sapiens): 70.5 ± 0.49 µM
IC50 ([4]; Homo sapiens): 86.4 ± 0.67 µM
IC50 MCF 12A [5]: non-toxic
inhibition at 10 µM [6]: 53.6%
melting point: 232 to 234 °C

SMILES: CCOC(=O)C1=C(C)N(c2nc(Nc3ccc(Cl)cc3)nc(Nc3ccc(Cl)cc3)n2)C(=S)NC1c1ccccc1Cl (stereo not shown) [7j, Ethyl 1-(4,6-bis((4-chlorophenyl)amino)-1,3,5-triazin-2-yl)-4-(2-chlorophenyl)-6-methyl-2-thioxo-1,2,3,4-tetrahydropyrimidine-5-carboxylate]
IC50 ([1]; Homo sapiens): 46.2 ± 0.56 µM
IC50 ([2]; Homo sapiens, MCF7): 57 ± 0.47 µM
IC50 ([3]; Homo sapiens): 39.6 ± 0.78 µM
IC50 ([4]; Homo sapiens): 38.7 ± 0.32 µM
IC50 [5]: 69.13 ± 0.62 µM
inhibition at 10 µM [6]: 82.4%
melting point: 112 to 114 °C

SMILES: CCOC(=O)C1=C(C)N(c2nc(Nc3cccc(Cl)c3)nc(Nc3cccc(Cl)c3)n2)C(=S)NC1c1ccc(O)cc1 (stereo not shown) [7d, Ethyl 1-(4,6-bis((3-chlorophenyl)amino)-1,3,5-triazin-2-yl)-4-(4-hydroxyphenyl)-6-methyl-2-thioxo-1,2,3,4-tetrahydropyrimidine-5-carboxylate]
IC50 ([1]; Homo sapiens): 51.3 ± 0.32 µM
IC50 ([2]; Homo sapiens, MCF7): 61.3 ± 0.78 µM
IC50 ([3]; Homo sapiens): 43.2 ± 0.38 µM
IC50 ([4]; Homo sapiens): 41.4 ± 0.38 µM
IC50 MCF 12A [5]: non-toxic
inhibition at 10 µM [6]: 74.8%
melting point: 161 to 163 °C

SMILES: CCOC(=O)C1=C(C)N(c2nc(Nc3ccccc3[N+](=O)[O-])nc(Nc3ccccc3[N+](=O)[O-])n2)C(=S)NC1c1cccc(Br)c1 (stereo not shown) [7i, Ethyl 1-(4,6-bis((2-nitrophenyl)amino)-1,3,5-triazin-2-yl)-4-(3-bromophenyl)-6-methyl-2-thioxo-1,2,3,4-tetrahydropyrimidine-5-carboxylate]
IC50 ([1]; Homo sapiens): 76 ± 0.54 µM
IC50 ([2]; Homo sapiens, MCF7): 76.4 ± 0.33 µM
IC50 ([3]; Homo sapiens): 66.7 ± 0.67 µM
IC50 ([4]; Homo sapiens): 71.6 ± 0.29 µM
IC50 MCF 12A [5]: non-toxic
%i [6]: 69.3%
Percent of Inhibition, EGFR tyrosine kinase [6]: 69.3%
inhibition at 10 µM [6]: ~69%
melting point: 185 to 186 °C

Continued, in another order:

inhibition at 10 µM [6]: 88.5%
melting point: 153 to 155 °C
SMILES: CCOC(=O)C1=C(C)N(c2nc(Nc3cccc(Cl)c3)nc(Nc3cccc(Cl)c3)n2)C(=S)NC1c1ccc(F)cc1 (stereo not shown) [7m, Ethyl 1-(4,6-bis((3-chlorophenyl)amino)-1,3,5-triazin-2-yl)-4-(4-fluorophenyl)-6-methyl-2-thioxo-1,2,3,4-tetrahydropyrimidine-5-carboxylate]
IC50 ([1]; Homo sapiens): 42.1 ± 0.34 µM
IC50 ([2]; Homo sapiens, MCF7): 53.8 ± 0.28 µM
IC50 ([3]; Homo sapiens): 36.5 ± 0.48 µM
IC50 ([4]; Homo sapiens): 39.3 ± 0.12 µM
IC50 [5]: 73.56 ± 0.4 µM

%i [6]: 70.1%
Percent of Inhibition, EGFR tyrosine kinase [6]: 70.1%
inhibition at 10 µM [6]: ~69%
SMILES: CCOC(=O)C1=C(C)N(c2nc(Nc3cccc(Br)c3)nc(Nc3cccc(Br)c3)n2)C(=S)NC1c1ccc([N+](=O)[O-])cc1 (stereo not shown) [7k, Ethyl 1-(4,6-bis((3-bromophenyl)amino)-1,3,5-triazin-2-yl)-6-methyl-4-(4-nitrophenyl)-2-thioxo-1,2,3,4-tetrahydropyrimidine-5-carboxylate]
IC50 ([1]; Homo sapiens): 66.4 ± 0.67 µM
IC50 ([2]; Homo sapiens, MCF7): 65.6 ± 0.43 µM
IC50 ([3]; Homo sapiens): 51.3 ± 0.82 µM
IC50 ([4]; Homo sapiens): 59.7 ± 0.69 µM
IC50 MCF 12A [5]: non-toxic

inhibition at 10 µM [6]: 45.6%
melting point: 131 to 133 °C
SMILES: CCOC(=O)C1=C(C)N(c2nc(Nc3ccc(C)cc3)nc(Nc3ccc(C)cc3)n2)C(=S)NC1c1ccc(O)cc1 (stereo not shown) [7o, Ethyl 1-(4,6-bis(p-tolylamino)-1,3,5-triazin-2-yl)-4-(4-hydroxyphenyl)-6-methyl-2-thioxo-1,2,3,4-tetrahydropyrimidine-5-carboxylate]
IC50 ([1]; Homo sapiens): 94.3 ± 0.78 µM
IC50 ([2]; Homo sapiens, MCF7): 89.4 ± 0.49 µM
IC50 ([3]; Homo sapiens): 98.3 ± 0.27 µM
IC50 MCF 12A [5]: non-toxic

inhibition at 10 µM [6]: 54.2%
melting point: 205 to 207 °C
SMILES: CCOC(=O)C1=C(C)N(c2nc(Nc3ccc(C)cc3)nc(Nc3ccc(C)cc3)n2)C(=S)NC1c1ccccc1C (stereo not shown) [7n, Ethyl 1-(4,6-bis(p-tolylamino)-1,3,5-triazin-2-yl)-6-methyl-2-thioxo-4-(o-tolyl)-1,2,3,4-tetrahydropyrimidine-5-carboxylate]
IC50 ([1]; Homo sapiens): 92.6 ± 0.23 µM
IC50 ([2]; Homo sapiens, MCF7): 93.2 ± 0.58 µM
IC50 ([3]; Homo sapiens): 104.5 ± 0.39 µM
IC50 MCF 12A [5]: non-toxic
